In US8207133B1, “Peptides that down regulate the activity of plasma membrane transporters including sodium-D-glucose cotransporter SGLT1” (Julius-Maximilians-Universitat Wurzburg, priority 2005, dated 2012):
Read-outs that look alike come from different tables or passages of the source. Residues, ends and D or L forms follow the SMILES beside them.

Assays:
hSGLT1 [1] = assay: hSGLT1 expressed [14C]AMG uptake in Xenopus oocytes after injection of hRS1 protein or hRS1 peptides; assay type: cell-based, human
[2] = system: RS1 at the TGN in LLC-PK1 cells; assay: Immunostaining of RS1 in subconfluent LLC-PK1 cells after brefeldin A; assay type: cell-based; settings: 2 μg/ml brefeldin A, 1 min or 5 min
Method: For immunostaining, LLC-PK1 cells were grown on coverslips to about 50% confluence. The cells were washed twice with washing buffer (5 mM 3-(N-morpholino)propanesulfonic acid-NaOH, pH 7.4, 100 mM NaCl, 3 mM KCl, 2 mM CaCl2, and 1 mM MgCl2), fixed for 12 min with 4% (w/v) paraformaldehyde diluted in washing buffer, and washed twice again. Free aldehyde groups were quenched by 10 min incubation with washing buffer containing 40 mM glycine. For immunoreactions, washed cells were permeabilized by a 10-min incubation with washing buffer containing 0.25% (w/v) TritonX-114, and incubated over night at 4° C. with primary antibodies diluted in washing buffer. The dilutions of primary antibodies were as follows: rabbit-anti-RS1-Ab 1:50 (Valentin (2000), Biochim. Biophys. Acta, 1468, 367-380); QIS30 directed against SGLT1 1:400 (Kipp (2003), Am. J. Physiol., 285, C737-C749), sheep-anti-TGN46 1:125 (from Diagnostic International, Schriesheim, Germany). After incubation with primary antibodies, cells were washed 3 times with washing buffer and incubated for 1 h at room temperature with fluorochrome linked secondary antibodies (goat antibody against rabbit IgG linked to AlexaFluor 488 Molecular Probes, Leiden, Netherlands, and donkey anti-sheep IgG coupled to Cy2 from Dianova, Hamburg, Germany). […]

hPEPT1 = biological target: T1, hPEPT1 (Homo sapiens, UniProt P46059); assay: Electrogenic peptide transport by hPEPT1 in oocytes, two-electrode voltage clamp; assay type: cell-based
T1 construct: expressed in transfected cells; host or cells: Xenopus laevis oocytes (cRNA injection, 30 ng per oocyte)
T1 sequence (P46059 1-708): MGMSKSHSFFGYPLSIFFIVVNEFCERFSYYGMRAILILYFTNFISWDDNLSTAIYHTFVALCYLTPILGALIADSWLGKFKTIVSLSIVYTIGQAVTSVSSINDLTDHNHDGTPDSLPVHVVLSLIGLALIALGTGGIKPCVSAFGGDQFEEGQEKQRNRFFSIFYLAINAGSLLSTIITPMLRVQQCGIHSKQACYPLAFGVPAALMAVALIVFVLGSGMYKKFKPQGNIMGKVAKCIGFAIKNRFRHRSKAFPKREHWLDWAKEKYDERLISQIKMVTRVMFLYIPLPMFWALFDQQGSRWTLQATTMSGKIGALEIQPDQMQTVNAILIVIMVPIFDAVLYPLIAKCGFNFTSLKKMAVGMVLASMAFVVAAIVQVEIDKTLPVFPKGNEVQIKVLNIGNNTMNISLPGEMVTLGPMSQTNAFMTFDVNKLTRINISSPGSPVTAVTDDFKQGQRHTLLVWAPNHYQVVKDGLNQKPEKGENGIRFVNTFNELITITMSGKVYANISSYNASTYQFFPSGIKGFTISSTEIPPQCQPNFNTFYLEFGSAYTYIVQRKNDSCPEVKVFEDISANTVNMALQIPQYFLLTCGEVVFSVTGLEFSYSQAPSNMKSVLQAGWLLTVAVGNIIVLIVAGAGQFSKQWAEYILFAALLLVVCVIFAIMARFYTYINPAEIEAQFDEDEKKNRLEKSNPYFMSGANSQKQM
Method: The oocytes were incubated for three days at 16° C. in ORi buffer (in mM: 5 HEPES-Tris, pH 7.4, 100 NaCl, 3 KCl, 2 CaCl2, and 1 MgCl2). […] The oocytes were superfused with Ori buffer titrated to pH 6.5, the membrane potential of the oocytes was clamped to −40 mV, and inward current induced by superfusion with Ori buffer (pH 6.5) containing 5 mM of a control dipeptide or 5 mM of the tested tripeptide was measured.

hSGLT1 [3] = assay: [14C]AMG uptake after incubating oocytes expressing hSGLT1 with or without hPEPT1 with tripeptide in the medium; assay type: cell-based, human; settings: pH 6.5
Method: In a different experimental setup, oocytes were injected with SGLT1 cRNA (2.5 ng per oocyte) or with hSGLT1 cRNA (2.5 ng per oocyte) plus hPEPT1 cRNA (10 ng per oocyte) and the oocytes were incubated 3 days for expression. Thereafter the oocytes were incubated 30 min with Ori buffer adjusted to pH 6.5 or with Ori buffer adjusted to pH 6.5 containing 3 mM of the tested tripeptide. Thereafter oocytes were washed with Ori buffer (pH 7.4) and uptake of [^14C]AMG was measured.
It was furthermore elucidated whether in human small intestine the expression of hSGLT1 can be inhibited by oral ingestion of QCP. […] Thereafter the oocytes were washed with neutral Ori buffer and the hSGLT1 expressed uptake of 50 μM [^14C]AMG was measured (FIG. 7). QCP had no effect in oocytes in which hSGLT1 but not hPEPT1 was expressed (data not shown). However, in oocytes expressing hSGLT1 plus hPEPT1, [^14C]AMG uptake was inhibited by about 50% when the oocytes had been incubated with QCP (FIG. 7). Incubation of oocytes expressing hSGLT1 plus hPEPT1 with PCQ had no effect on the expressed uptake of [^14C]AMG.

[4] = system: sodium dependent amino acid transporters; settings: 60 min, pH 6.5, 3 mM QCP, 10 mM amino acids
Method: Walls of small intestinal mucosa from mice are inserted into an Ussing chamber and transepitehial currents are measured that are induced by addition of 10 mM of various amino acids to the mucosal side. The intestinal walls are incubated for 60 min with buffer at pH 6.5 containing 0.1 mM D-glucose or with buffer at pH 6.5 containing 0.1 mM D-glucose plus 3 mM of QCP. After washing, amino acid induced transepithelial currents without and with preteatment with QCP are compared.

hOCT2 = settings: intracellular AMG 0.1 mM, <0.01 mM or 10 mM
Method: Corresponding measurements were performed in the presence of intracellular AMG concentrations of 0.1 mM, <0.01 mM or 10 mM.

[5] = 10 mM QCP in drinking water pH 6.0, 2 months, standard chow or sugar low diet
Text: The body weight development with and without peptide treatment is compared over 2 months.

SGLT1 = settings: 60 min pre-incubation, pH 6.5, 3 mM QCP, 0.1 mM D-glucose
Method: Walls of small intestinal mucosa from mice are inserted into an Ussing chamber and the SGLT1 mediated transepitehila currents are measured that are induced by addition of 0.1 mM D-glucose to the mucosal side. The intestinal walls are pre-incubated for 60 min with buffer at pH 6.5 containing 0.1 mM D-glucose or with buffer at pH 6.5 containing 0.1 mM D-glucose plus 3 mM of QCP. After washing glucose-induced transepithelial currents are measured.

SDSDRIEP [Serine-Aspartic acid-Serine-Aspartic acid-Arginine-Isoleucine-Glutamic acid-Proline, octapeptide of hRS1, amino acid positions 43 to 50]
inhibition of glucose uptake expressed by hSGLT1 (hSGLT1 [1]): about 50%
inhibition of hSGLT1 expressed AMG uptake after stimulation of protein kinase C (hSGLT1 [1]): not changed
inhibition of hSGLT1 expressed AMG uptake with coexpressed dominant negative mutant of dynamin I (hSGLT1 [1]): not changed
inhibitory effect on expression of hSGLT1 when the exocytotic pathway was blocked (hSGLT1 [1]): could be prevented

C[C@H]1CCC/C=C/[C@@H]2C[C@H](O)C[C@H]2[C@H](O)/C=C/C(=O)O1 [brefeldin A]
immunoreactivity of RS1 at the perinuclear compartment [2]: disappeared within several minutes

Glutamine-Cysteine-Proline [QCP]
inward currents in control oocytes not injected with hPEPT1 cRNA (hPEPT1): no inward currents
inward currents in oocytes expressing hPEPT1 (hPEPT1; pH 6.5): significant inward currents
effect on AMG uptake in oocytes expressing hSGLT1 but not hPEPT1 (hSGLT1 [3]): no effect
inhibition of [14C]AMG uptake in oocytes expressing hSGLT1 plus hPEPT1 (hSGLT1 [3]): about 50%
transepithelial flux of amino acids [4]: inhibits transepithelial flux of amino acids
AMG uptake inhibition in the absence of BTXB (hSGLT1 [1]): inhibited
AMG uptake inhibition in the presence of BTXB (hSGLT1 [1]): no significant inhibition
inhibition of glucose uptake expressed by hSGLT1 (hSGLT1 [1]): about 50%
inhibition of hSGLT1 expressed AMG uptake after stimulation of protein kinase C (hSGLT1 [1]): not changed
inhibition of hSGLT1 expressed AMG uptake with coexpressed dominant negative mutant of dynamin I (hSGLT1 [1]): not changed
inhibition of hSGLT1 expressed uptake of AMG after 3 h (hSGLT1 [1]): 60%
inhibition of hSGLT1 expressed uptake of AMG after 5 h (hSGLT1 [1]): about 40%
inhibition of hSGLT1 expressed uptake of AMG after 10 h (hSGLT1 [1]): 20-30%
inhibitory effect on expression of hSGLT1 when the exocytotic pathway was blocked (hSGLT1 [1]): could be prevented
intracellular concentration of QCP at which 35-40% inhibition was obtained (hSGLT1 [1]): below 5 nM
inhibition of hSGLT1 expressed AMG uptake (hSGLT1 [1]; 0.05 µM): 35-40%
hOCT2 expressed [14C]TEA uptake after injection (hOCT2): appears not to be inhibited
body weight [5]: body weight is reduced
transepithelial glucose flux (SGLT1): inhibits transepithelial glucose flux

SVQPCQENQ [reverse nonapeptide of […], reference compound]
inhibition of uptake of 50 μM [14C]AMG (hSGLT1 [1]; 50 nl/oocyte containing 1.5 mM peptide injected, 30 min): No inhibition

NCC(=O)N[C@@H](CCC(N)=O)C(=O)O [GC, glycylglutamine, reference compound] (H-Gly-Gln-OH)
inward currents in oocytes expressing hPEPT1 (hPEPT1; 5 mM peptide, pH 6.5, clamped to -40 mV): significant inward currents
inward currents in control oocytes not injected with hPEPT1 cRNA (hPEPT1; data not shown): no inward currents
